Two molecules from PubChem BioAssay (NCI) can be followed below.

Where “and” joins values, the source holds several entries; their conditions need not be identical. Equal values may be shown once.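 Grown in 96-well plates, cells were treated for 48 hours with each compound at five concentrations. Insufficient inhibition: endpoint recorded as highest concentration tested. GI50 marks 50% less growth. The concentration for full growth arrest is given as TGI.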 Some results are limits rather than exact numbers.

Among the test systems are CCRF-CEM leukemia; COLO 205 colon; IGROV1 ovarian; K-562 leukemia; MCF7 breast; NCI-H23 lung; OVCAR-4 ovarian; SF-295 CNS; SK-MEL-2 melanoma; UACC-62 melanoma.
Common to all, as to assay: inhibition of tumour cell growth, NCI panel, 48 h

With `CCCCCCNC(=O)c1cnc(Cl)cn1`, the TGI with CCRF-CEM leukemia is above 100 µM; with COLO 205 colon, 40 µM; in the assay with IGROV1 ovarian, 22.8 µM; with K-562 leukemia, 40.2 µM; in the assay with MCF7 breast it was 23.6 µM; in the assay on NCI-H23 lung, 23.5 µM. For the same molecule, the TGI was found to be 47.9 µM with OVCAR-4 ovarian, 39.4 µM with SF-295 CNS, 31 µM in the assay on SK-MEL-2 melanoma and 33.4 µM with UACC-62 melanoma.

As for `Cc1c2cc[n+](CCN3CCCCC3)cc2c(C)c2c1[nH]c1ccc(O)cc12`, the GI50 in the assay with CCRF-CEM leukemia is 1.8 µM; in the assay on COLO 205 colon it was 2.57 µM; with IGROV1 ovarian, 4.43 µM; with K-562 leukemia, 2.33 µM; in the assay on NCI-H23 lung, 2.6 µM; with OVCAR-4 ovarian, 2.98 µM. Moreover, the GI50 was 5.43 µM with SF-295 CNS, 13.5 µM in the assay with SK-MEL-2 melanoma and 11.4 µM with UACC-62 melanoma. Further, the TGI in the assay with CCRF-CEM leukemia was 17.4 µM and > 100 µM; in the assay on COLO 205 colon, 27.5 µM and > 24.2 µM; in the assay with IGROV1 ovarian, 38.1 µM and 30.4 µM; in the assay with K-562 leukemia, 25.3 µM and 14.8 µM; with MCF7 breast it was 39.7 µM and 11.5 µM; with NCI-H23 lung it was 53.1 µM and 27.7 µM. The TGI is 7.39 µM and 24.6 µM in the assay with OVCAR-4 ovarian; 18.4 µM and > 100 µM in the assay on SF-295 CNS; 35.5 µM and 36.3 µM in the assay with SK-MEL-2 melanoma; 36.7 µM and 31.2 µM with UACC-62 melanoma.
